Reference: patent US9187518B2, “Antiangiogenic brassinosteroid compounds” (CONSEJO NACIONAL DE INVESTIGACIONES CIENTIFICAS Y TECNICAS …, priority 2011, dated 2015)

What was measured:
IL-6 = IL-6 secretion in epithelial cells (ELISA); type: cell-based, human
TNF-α = TNF-α secretion in LPS-activated macrophages; type: cell-based; settings: Macrophage, read-out: inhibitory concentration 50% (IC50), TNF-α secretion
NF-κB p65 subunit = assay: NF-κB p65 nuclear translocation in LPS-stimulated J774A.1 cells (IFI); type: cell-based, murine; settings: J774A.1 induced with LPS 8 h, 40 μM (LPS only 79.4±1.2)
Experimental: J774A.1 cells were grown on coverslips in 24-well plates and stimulated with 100 ng/ml LPS (Sigma) in RPMI without SFB, for 8 h at 37° C.
After incubation, cells were fixed in methanol at −20° C. for 10 min, and processed for indirect immunofluorescence (IFI) with antibodies directed against the glycoprotein D (gD) of HSV-1 and/or the p65 subunit of NF-κB. After three washes with PBS, the coverslips were inverted on a drop of a 1/100 dilution of the first antibody, mouse monoclonal anti-gD and/or rabbit polyclonal anti p65 (Santa Cruz Biotechnology) and incubated for 30 min at 37° C., and then subjected to three additional washes with PBS. […]
The images obtained with a 40× magnification were imported into NIH Image J 1.34s program (designed by Wayne Rasband, NIMH, Bethesda). […] We analyzed the total and nuclear fluorescence of the individual cells and a mean fluorescence density was obtained for each. To compare the distribution of fluorescence within the cell, the results were analyzed in a spreadsheet (Excel®). The total fluorescence intensity or nuclear density was calculated as the total or nuclear average per total or nuclear area, respectively. Then, we calculated the percentage of nuclear intensity or the percentage of nuclear intensity with respect to the total intensity for each cell. […]

VEGF promoter = assay: VEGF expression (pVEGF-LUC reporter) in J774A.1 cells; type: cell-based, murine
Text: The expression vectors pVEGF-LUC (encoding firefly luciferase) and pβ-gal were kindly donated by members of the research group of Dr. Arzt (FCEyN, UBA, Argentina).
J774A.1 cells grown to confluence in 6-well micro-plates were transfected with […] of pVEGF-LUC and pβ-gal plasmids diluted in the Opti MEM medium, without serum and antibiotics, and in the presence of lipofectamine (DNA lipofectamine TM 2000) as a reagent for transfection, according to the manufacturer's instructions. After 4 to 6 h of incubation at 37° C. in 5% CO2 atmosphere, the medium was discarded and replaced by fresh Opti MEM with 10% FBS, without antibiotics, and incubated at 37° C. in atmosphere 5% CO2 for 24 h.
The medium was discarded and cells were stimulated with 100 ng/ml LPS and 1 ng/ml of IL-6 in Opti MEM medium with 10% FBS. After 8 h and 16 h stimulation, the medium was discarded and the cells were lifted by scrapping in 0.1 ml per well of 1× lysis buffer. The samples were stored at −70° C. until processing.
In order to measure luciferase activity, 20 μl of each sample were mixed with 80 μl of substrate for firefly luciferase and measured in a luminometer. In the same samples, β-gal activity was measured in 96-well microplates. To do this, 20 μl of each sample were mixed with 80 μl of substrate for β-galactosidase and incubated at 37° C. until color developed. The absorbances of these mixtures were read in an ELISA reader at 450 nm.
We determined the expression of luciferase as a reporter of VEGF promoter activity values obtained by normalizing the against β-gal activity for each sample.
Thus, J774A.1 cells grown in 6-well microplates were transfected with plasmids pVEGF-LUC and pβ-gal. At 24 h post-transfection, cells were stimulated with 100 ng/ml of LPS and […], in the absence and presence of […] of Compound 1. Then, we measured the expression of VEGF and β-gal in the harvested samples and determined the expression of luciferase as a reporter of VEGF promoter activity, by normalizing the values obtained with those of β-gal activity.

HUVECs = assay: Cell invasion assay (transwell, IL-6 stimulated); type: cell-based; settings: Homo sapiens, HUVEC, 100 ng/ml IL-6, 24 h, read-out: inhibition of HUVECs invasion through the filter
Experimental: HUVECs' invasion was evaluated using 24-well transwell cell culture chambers with 8 μm pore polycarbonate filter inserts. Cultured HUVECs were trypsinized and suspended in Medium 200 supplemented with LSGS at a concentration of 8×10^5 cells/ml. A total of 4×10^4 of cell suspension was applied to insert filters. We used 100 ng/ml of IL-6 to stimulate cell migration through the inserts. For that, we dispensed 600 μl of medium alone or with the stimulus in the lower chamber, which was then incubated for 24 h at 37° C. to allow cell migration. The insert was removed and migrated cells on the wells were fixed and stained with crystal violet. The wells were examined under a microscope. Migration was quantified by measuring the total stained cells in every well.

LMM3 cells = assay: In vivo neovascular response induced by LMM3 cells in BALB/c mice; settings: intradermal, 5 days
Experimental: For the in vivo assay, 2×10^6 cells/mL were grown in 1 mL of complete medium in 6 wells plates. Compound 1 was incubated with LMM3 cells during 1 h and 6 hs. Also, a group of non-treated tumoral cells were grown and incubated. Then, all the cells from each group were washed with PBS, trypsinized and re-suspended in 0.9 ml of F12 medium without FBS.
Female BALB/c mice were randomized as follows:
• Sham N=4 • LMM3 N=4 • LMM3+Compound 1-1 hour treatment N=4 • LMM3+Compound 1-6 hours treatment N=4
Then, inoculation of 2×10^5 cells/0.1 mL was done intradermically in the mouse flanks. After 5 days the animals were sacrificed and photographs of the inoculation site were taken.
The vessels density was quantified in each animal and the results were analized by ANOVA followed by the Tukey test. Results were expressed as the median of vessels density (vessels/mm^2+/−ES).

`CC[C@@H](C(C)C)[C@H](O)[C@@H](O)[C@@H](C)[C@H]1CC[C@H]2[C@@H]3CCC4=CC(=O)CC[C@]4(C)[C@H]3CC[C@]12C` [Compound 1, (22S,23S)-22,23-dihydroxystigmast-4-en-3-one] was tested, and the IL-6 release (IL-6; HSV-1 infected HCLE cells, 40 μM, 24 h, vs infected control) was “did not elicit any change”, the IL-6 release (IL-6; HSV-1 infected IOBA-NHC cells, 40 μM, 24 h, vs infected control) was “did not elicit any change” and the IL-6 release (IL-6; uninfected treated cells, compound alone) was “did not induce IL-6 release by itself”. For the same compound, the IC50 (TNF-α) was 7 µM, the “percentage of cells positive for NF-κB translocation to the nucleus” value (NF-κB p65 subunit) was 87.9±0.2% and the “VEGF expression (luciferase normalized to β-gal, VEGF/β-gal)” value (VEGF promoter; 100 ng/ml LPS 8 h, Compound 1 (stimulated untreated 93201.5±26770.4)) was 22098.5±4052.4. The “VEGF expression (luciferase normalized to β-gal, VEGF/β-gal)” value (VEGF promoter; IL-6 16 h, Compound 1 (stimulated untreated 30929.5±5464)) was 17900±2689.7, the “VEGF expression (luciferase normalized to β-gal)” value (VEGF promoter; no stimulus, compound alone, vs baseline) was “did not induce the expression of VEGF” and the inhibition at 10 µM (HUVECs; 10 μM) was 18.4%. The inhibition at 20 µM (HUVECs; 20 μM) was 26.1%, the inhibition at 40 µM (HUVECs; 40 μM) was 67.5% and the “angiogenic response induced by LMM3 cells (vessel density)” value (LMM3 cells; LMM3 cells pre-incubated with 0.025 μg/μl during 1 h) was “significantly reduced”. The “angiogenic response induced by LMM3 cells (vessel density)” value (LMM3 cells; LMM3 cells pre-incubated with 0.025 μg/μl during 6 h) was “significantly reduced”.
